Source: the supplement of paper PMC10307832

Experiments:
Assay in all cases: relative viability (nuclei count vs DMSO), 5 days (fraction); higher = more cells survive
Obatoclax + Phenformin = compound: COC1=CC(c2cc3ccccc3[nH]2)=N/C1=C\c1[nH]c(C)cc1C [Obatoclax] + N=C(N)NC(=N)NCCc1ccccc1 [Phenformin] (partner 250 µM)
Summary of the method: (§1)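 Five library-drug doses in √10 steps were combined with a fixed anchor-drug dose, or a single drug was given alone, by pin tool to lung cancer cell lines in 1536-well plates the day after seeding. Nuclei were stained and counted after 5 days. Relative viability is the nuclei count in treated wells over that in vehicle wells, taken as the median of duplicate plates.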

Obatoclax + Lapatinib = compound: COC1=CC(c2cc3ccccc3[nH]2)=N/C1=C\c1[nH]c(C)cc1C [Obatoclax] + CS(=O)(=O)CCNCc1ccc(-c2ccc3ncnc(Nc4ccc(OCc5cccc(F)c5)c(Cl)c4)c3c2)o1 [Lapatinib] (partner 2 µM)
Summary of the method: as §1

Obatoclax + Pictilisib = compound: COC1=CC(c2cc3ccccc3[nH]2)=N/C1=C\c1[nH]c(C)cc1C [Obatoclax] + CS(=O)(=O)N1CCN(Cc2cc3nc(-c4cccc5[nH]ncc45)nc(N4CCOCC4)c3s2)CC1 [Pictilisib] (partner 1 µM)
Summary of the method: as §1

Obatoclax + Tozasertib = compound: COC1=CC(c2cc3ccccc3[nH]2)=N/C1=C\c1[nH]c(C)cc1C [Obatoclax] + Cc1cc(Nc2cc(N3CCN(C)CC3)nc(Sc3ccc(NC(=O)C4CC4)cc3)n2)n[nH]1 [Tozasertib] (partner 0.1 µM)
Summary of the method: as §1

Row | Cell Line | relative viability (Obatoclax + Phenformin; first compound 0.01 µM) | relative viability (Obatoclax + Phenformin; first compound 0.03162 µM) | relative viability (Obatoclax + Phenformin; first compound 0.1 µM) | relative viability (Obatoclax + Phenformin; first compound 0.3162 µM) | relative viability (Obatoclax + Phenformin; first compound 1 µM) | relative viability (Obatoclax + Lapatinib; first compound 0.01 µM) | relative viability (Obatoclax + Lapatinib; first compound 0.03162 µM) | relative viability (Obatoclax + Lapatinib; first compound 0.1 µM) | relative viability (Obatoclax + Lapatinib; first compound 0.3162 µM) | relative viability (Obatoclax + Lapatinib; first compound 1 µM) | relative viability (Obatoclax + Pictilisib; first compound 0.01 µM) | relative viability (Obatoclax + Pictilisib; first compound 0.03162 µM) | relative viability (Obatoclax + Pictilisib; first compound 0.1 µM) | relative viability (Obatoclax + Pictilisib; first compound 0.3162 µM) | relative viability (Obatoclax + Pictilisib; first compound 1 µM) | relative viability (Obatoclax + Tozasertib; first compound 0.01 µM) | relative viability (Obatoclax + Tozasertib; first compound 0.03162 µM) | relative viability (Obatoclax + Tozasertib; first compound 0.1 µM) | relative viability (Obatoclax + Tozasertib; first compound 0.3162 µM) | relative viability (Obatoclax + Tozasertib; first compound 1 µM)
1 | NCI-H2023 | 0.387 | 0.438 | 0.425 | 0.293 | 0.152 | 1.08 | 0.755 | 0.761 | 0.622 | 0.122 | 0.29 | 0.22 | 0.265 | 0.151 | 0.0879 | 0.365 | 0.354 | 0.297 | 0.145 | 0.151
2 | EBC-1 | – | – | – | – | – | 0.204 | 0.213 | 0.227 | 0.182 | 0.189 | 0.376 | 0.284 | 0.257 | 0.214 | 0.177 | – | – | – | – | –
3 | NCI-H1666 | 0.576 | 0.542 | 0.571 | 0.494 | 0.421 | 0.868 | 0.682 | 0.469 | 0.273 | 0.291 | 0.398 | 0.531 | 0.479 | 0.188 | 0.196 | 0.634 | 0.739 | 0.694 | 0.367 | 0.398
4 | NCI-H1975 | 0.438 | 0.427 | – | 0.355 | 0.228 | 1.01 | 0.823 | 0.649 | 0.825 | 0.341 | 0.299 | 0.313 | 0.258 | 0.292 | 0.199 | 0.706 | 0.837 | – | 0.658 | 0.131
5 | NCI-H1793 | 0.404 | 0.32 | 0.377 | 0.345 | 0.332 | 0.802 | 0.68 | 0.61 | 0.717 | 0.836 | 0.288 | 0.306 | 0.388 | 0.297 | 0.296 | 0.309 | 0.393 | 0.406 | 0.324 | 0.297
6 | NCI-H1355 | 0.456 | 0.458 | 0.431 | 0.44 | 0.397 | 1.06 | 0.886 | 0.838 | 0.862 | 0.921 | 0.405 | 0.412 | 0.406 | 0.384 | 0.327 | 0.602 | 0.588 | 0.623 | 0.538 | 0.466
7 | SW 900 | 0.556 | 0.584 | 0.726 | 0.493 | 0.325 | – | – | – | – | – | – | – | – | – | – | 0.67 | 0.571 | 0.499 | 0.33 | 0.281
8 | A549 | 0.131 | 0.248 | 0.035 | 0.222 | 0.0807 | 0.933 | 1.1 | 0.997 | 0.966 | 0.125 | 0.509 | 0.7 | 0.448 | 0.442 | 0.0671 | – | – | – | – | –
9 | NCI-H2170 | 0.362 | 0.414 | 0.396 | 0.419 | 0.437 | 0.281 | 0.247 | 0.304 | 0.253 | 0.306 | 0.369 | 0.278 | 0.316 | 0.334 | 0.295 | 0.759 | 0.758 | 0.718 | 0.715 | 0.753
10 | EKVX | 0.257 | 0.218 | 0.141 | 0.232 | 0.231 | 0.208 | 0.19 | 0.215 | 0.199 | 0.189 | 0.426 | 0.427 | 0.507 | 0.41 | 0.355 | 0.371 | 0.357 | 0.466 | 0.385 | 0.394
11 | RERF-LC-KJ | 0.37 | 0.441 | 0.459 | 0.45 | 0.434 | 0.837 | 0.832 | 0.843 | 0.831 | 0.859 | 0.543 | 0.587 | 0.538 | 0.513 | 0.334 | 0.444 | 0.536 | 0.487 | 0.493 | 0.281
12 | NCI-H1755 | 0.622 | 0.6 | 0.492 | 0.634 | 0.541 | 1.04 | 1.03 | 0.81 | 1.07 | 0.995 | 0.475 | 0.383 | 0.386 | 0.357 | 0.269 | 0.542 | 0.537 | 0.574 | 0.574 | 0.515
13 | NCI-H661 | 0.284 | 0.256 | 0.262 | 0.263 | 0.234 | 0.421 | 0.47 | 0.539 | 0.474 | 0.611 | 0.392 | 0.363 | 0.33 | – | 0.451 | 0.365 | 0.336 | 0.393 | 0.355 | 0.357
14 | LOU-NH91 | 0.716 | 0.657 | 0.499 | 0.403 | 0.432 | 0.826 | 0.73 | 0.669 | 0.603 | 0.59 | 0.541 | 0.503 | 0.505 | 0.469 | 0.533 | 0.658 | 0.655 | 0.513 | 0.598 | 0.489
15 | LXF-289 | 0.484 | 0.53 | 0.496 | 0.505 | 0.458 | 0.893 | 0.903 | 0.934 | 0.832 | 0.624 | 0.778 | 0.773 | 0.751 | 0.72 | 0.694 | 0.192 | 0.216 | 0.215 | 0.168 | 0.131
16 | HCC-44 | 0.268 | 0.185 | 0.0802 | 0.14 | 0.111 | 1.08 | 0.891 | 0.955 | 0.876 | 0.37 | 0.69 | 0.552 | 0.577 | 0.583 | 0.246 | 0.907 | 1.03 | 0.556 | 0.376 | 0.196
17 | HARA | 0.427 | 0.432 | 0.463 | 0.455 | 0.357 | 0.816 | 0.752 | 0.667 | 0.69 | 0.297 | 0.449 | 0.445 | 0.426 | 0.379 | 0.352 | 0.101 | 0.154 | 0.146 | 0.124 | 0.132
